Reference: ChEMBL document CHEMBL1201862, “PubChem BioAssay data set” (2004)
The source made the active and inactive calls.

Columns and labels:
[1] = (§1) Counterscreen for antagonists of the orexin 1 receptor (OX1R; HCRTR1): Fluorescence-based cell-based high throughput dose response assay to identify antagonists of the parental CHO cell line. [Related pubchem assays (depositor defined):AID434989, AID435008, AID463079, AID485270, AID492963, AID492964, AID492965, AID493232, AID504699, AID504701]; assay type: functional
[2] = target: T1, Orexin receptor type 2 (Homo sapiens, UniProt O43614); assay: Counterscreen assay for antagonists of the orexin 1 receptor (OX1R; HCRTR1): Homogeneous Time Resolved Fluorescence (HTRF)-based cell-based dose response assay for antagonists of the orexin 2 receptor (OX2R; HCRTR2), run by assay provider.; assay type: functional
T1 sequence (O43614 whole entry): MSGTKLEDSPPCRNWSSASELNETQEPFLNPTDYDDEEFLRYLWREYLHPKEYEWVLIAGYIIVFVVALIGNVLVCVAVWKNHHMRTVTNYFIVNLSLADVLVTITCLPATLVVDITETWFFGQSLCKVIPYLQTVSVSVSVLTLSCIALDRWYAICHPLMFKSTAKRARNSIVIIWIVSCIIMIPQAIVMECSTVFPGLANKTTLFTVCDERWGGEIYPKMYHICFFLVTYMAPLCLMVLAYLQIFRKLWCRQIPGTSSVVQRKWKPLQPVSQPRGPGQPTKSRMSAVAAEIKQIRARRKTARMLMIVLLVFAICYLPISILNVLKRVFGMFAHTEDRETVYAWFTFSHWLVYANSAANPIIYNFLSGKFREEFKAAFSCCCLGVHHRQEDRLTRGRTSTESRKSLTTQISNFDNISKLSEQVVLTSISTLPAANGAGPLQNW

[3] = A Cell Based Secondary Assay To Explore Cytotoxicity of Compounds that Sensitize Mycobacterium Tuberculosis to Beta-Lactam Antibiotics.; assay type: functional
[4] = DRD fibroblast viability loss – cell-based, non-viral oncogenic, luminescence, dose response (AID 1934); assay type: functional; conditions: Homo sapiens
[5] = cells
[6] = tested on: BJ; assay: cells; assay type: functional, cell-based; conditions: Homo sapiens
[7] = blockade of melanocortin 4 receptor signaling – cell-based, plate reader, cherry pick, counter-screen for LGR2 antagonist project, dose response (AID 743444); assay type: functional;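 note: transfected HEK 293 cells stimulated with alpha-MSH peptide; potency of inhibitors of the alpha-MSH evoked signal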
[8] = tested on: BJ; assay: growth inhibition of engineered Ras-driven BJ cells – cell-based, alamar blue fluorescence, cherrypicked samples, dose response (AID 2631); assay type: functional; conditions: Homo sapiens;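 note: confirmatory dose-response assay in RAS-dependent BJ fibroblasts engineered with TERT, LT and ST, with cytotoxicity read by fluorescence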
[9] = target: T2, Orexin/Hypocretin receptor type 1 (Homo sapiens, UniProt O43613); assay: Homogeneous Time Resolved Fluorescence (HTRF)-based cell-based high throughput dose response assay for antagonists of the orexin 1 receptor (OX1R; HCRTR1). [Related pubchem assays (depositor defined):AID434989, AID435008, AID463079, AID485270, AID492963, AID492964, AID492965, AID493232, AID504717, AID504718]; assay type: functional
T2 sequence (O43613 whole entry): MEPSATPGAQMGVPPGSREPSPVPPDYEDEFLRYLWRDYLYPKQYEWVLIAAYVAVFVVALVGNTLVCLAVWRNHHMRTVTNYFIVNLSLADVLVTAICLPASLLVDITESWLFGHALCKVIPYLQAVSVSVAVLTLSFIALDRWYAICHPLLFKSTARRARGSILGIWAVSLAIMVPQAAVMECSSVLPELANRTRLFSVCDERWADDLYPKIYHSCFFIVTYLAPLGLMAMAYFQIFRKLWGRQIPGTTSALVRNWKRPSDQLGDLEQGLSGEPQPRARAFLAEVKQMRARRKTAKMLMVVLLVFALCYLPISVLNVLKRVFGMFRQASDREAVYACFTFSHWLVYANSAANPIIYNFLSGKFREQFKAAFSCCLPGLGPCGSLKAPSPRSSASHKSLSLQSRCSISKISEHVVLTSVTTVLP

[10] = tested on: CHO-K1; assay: as §1, with “Homogeneous time resolved fluorescence (HTRF)-based” for “Fluorescence-based”, “cell-based” for “cell-based high throughput”, “CHO-K1” for “CHO”; assay type: functional; conditions: Cricetulus griseus;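 note: potency for inhibition of ATP-stimulated IP1 production as antagonists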
[11] = target: T3, Oxysterols receptor LXR-beta (Homo sapiens, UniProt P55055); assay type: functional, cell-based;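 note: Cell-based luminescence dose-response assay of agonist activity at LXR, run as a confirmatory counterscreen to a daf-12 agonist screen; HEK293 cells with Gal4-LXR fusion and GAL4-driven luciferase reporter; agonist potency from rising luciferase signal of a Gal4-LXR reporter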
T3 sequence (P55055 whole entry): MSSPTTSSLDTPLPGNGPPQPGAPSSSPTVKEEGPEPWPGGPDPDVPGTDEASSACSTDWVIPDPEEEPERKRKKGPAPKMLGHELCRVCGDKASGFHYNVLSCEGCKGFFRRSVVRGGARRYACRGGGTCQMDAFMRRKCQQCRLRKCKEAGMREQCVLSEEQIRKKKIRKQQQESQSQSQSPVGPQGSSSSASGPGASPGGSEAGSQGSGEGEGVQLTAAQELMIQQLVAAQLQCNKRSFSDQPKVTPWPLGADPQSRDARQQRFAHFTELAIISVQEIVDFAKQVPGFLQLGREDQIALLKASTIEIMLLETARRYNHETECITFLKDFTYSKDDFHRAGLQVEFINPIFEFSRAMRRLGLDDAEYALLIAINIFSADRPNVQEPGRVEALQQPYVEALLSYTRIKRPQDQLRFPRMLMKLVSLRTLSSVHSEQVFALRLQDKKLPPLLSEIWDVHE

[12] = target: T1, Orexin receptor type 2; assay: Counterscreen assay for antagonists of the orexin 1 receptor (OX1R; HCRTR1): Fluorescence-based cell-based dose response assay for antagonists of the orexin 2 receptor (OX2R; HCRTR2), run by assay provider.; assay type: functional
[13] = A549 cell cytotoxicity, dose response, cytotoxicity control, plate reader, cherry-pick, antagonist series (AID 743412); assay type: functional, cell-based
[14] = target: T2, Orexin/Hypocretin receptor type 1; assay: Fluorescence-based cell-based high throughput dose response assay for antagonists of the orexin 1 receptor (OX1R; HCRTR1). [Related pubchem assays (depositor defined):AID434989, AID435008, AID463079, AID485270, AID492963, AID492964, AID492965, AID493232, AID504717, AID504718]; assay type: functional
[15] = blockers of bursicon-stimulated LGR2 cAMP reporter – cell-based, HEK293, CRE-luciferase reporter, cherry pick, set 2, dose response (AID 743343); assay type: functional;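 note: transfected cells were stimulated with diluted bursicon conditioned medium after compound addition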
[16] = target: Luciferin 4-monooxygenase (Photinus pyralis, UniProt P08659); assay: inhibition of purified Photinus pyralis luciferase – biochemical, luminescence, dose response (AID 1891)
[17] = target: T4, Protein skinhead-1 (Caenorhabditis elegans, UniProt P34707); assay type: functional
T4 sequence (P34707 whole entry): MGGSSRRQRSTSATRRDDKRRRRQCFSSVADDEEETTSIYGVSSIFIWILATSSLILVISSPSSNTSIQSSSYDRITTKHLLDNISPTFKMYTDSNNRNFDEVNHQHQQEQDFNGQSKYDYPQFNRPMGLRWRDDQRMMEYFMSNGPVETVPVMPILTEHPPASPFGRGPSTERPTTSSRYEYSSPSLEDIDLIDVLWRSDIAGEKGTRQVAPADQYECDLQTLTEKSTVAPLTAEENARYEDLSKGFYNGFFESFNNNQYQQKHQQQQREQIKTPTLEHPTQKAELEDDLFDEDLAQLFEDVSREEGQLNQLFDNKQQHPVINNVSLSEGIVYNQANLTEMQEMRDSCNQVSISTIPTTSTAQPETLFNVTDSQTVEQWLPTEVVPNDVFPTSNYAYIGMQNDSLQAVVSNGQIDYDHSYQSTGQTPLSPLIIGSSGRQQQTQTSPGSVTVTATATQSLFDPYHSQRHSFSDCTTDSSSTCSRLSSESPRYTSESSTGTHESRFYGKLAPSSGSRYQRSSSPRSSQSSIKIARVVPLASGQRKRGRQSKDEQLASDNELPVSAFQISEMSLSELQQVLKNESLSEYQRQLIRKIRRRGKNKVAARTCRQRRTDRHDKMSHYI

[18] = tested on: BJ; assay: BJ-TERT fibroblast viability loss – cell-based, RAS-independent, luminescence, dose response (AID 1933); assay type: functional; conditions: Homo sapiens
[19] = toxicity toward HepG2 liver cells – cell-based, plate reader, cherry-pick, antagonist series, cytotoxicity control, dose response (AID 743416); assay type: functional
[20] = tested on: BJ; assay: BJ-TERT-LT-ST fibroblast viability loss – cell-based, RAS-independent, luminescence, dose response (AID 1935); assay type: functional; conditions: Homo sapiens;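 note: BJ fibroblasts immortalized with TERT plus LT and ST oncogenes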
[21] = Luminescence Cell-Based Dose Confirmation HTS to Identify Inhibitors of Platelet Dense Granule Release. [Related pubchem assays: 1663 (Primary HTS), 1678 (Summary of Project)]; assay type: functional
[22] = viability loss in HEK293 cells – cell-based, plate reader, cherry-picked samples, cytotoxicity control, dose response (AID 743446); assay type: functional
[23] = target: Prothrombin (Bos taurus, UniProt P00735); assay: thrombin protease inhibitors – biochemical, fluorescence polarization, uHTS hits, dose response (AID 602369); assay type: functional
[24] = target: 72 kDa type IV collagenase (Homo sapiens, UniProt P08253); assay: Dose Response validation of uHTS RPN11 inhibitor hits using a MMP-2 Fluorescence assay.; assay type: functional
Chain of 72 kDa type IV collagenase (P08253 whole entry): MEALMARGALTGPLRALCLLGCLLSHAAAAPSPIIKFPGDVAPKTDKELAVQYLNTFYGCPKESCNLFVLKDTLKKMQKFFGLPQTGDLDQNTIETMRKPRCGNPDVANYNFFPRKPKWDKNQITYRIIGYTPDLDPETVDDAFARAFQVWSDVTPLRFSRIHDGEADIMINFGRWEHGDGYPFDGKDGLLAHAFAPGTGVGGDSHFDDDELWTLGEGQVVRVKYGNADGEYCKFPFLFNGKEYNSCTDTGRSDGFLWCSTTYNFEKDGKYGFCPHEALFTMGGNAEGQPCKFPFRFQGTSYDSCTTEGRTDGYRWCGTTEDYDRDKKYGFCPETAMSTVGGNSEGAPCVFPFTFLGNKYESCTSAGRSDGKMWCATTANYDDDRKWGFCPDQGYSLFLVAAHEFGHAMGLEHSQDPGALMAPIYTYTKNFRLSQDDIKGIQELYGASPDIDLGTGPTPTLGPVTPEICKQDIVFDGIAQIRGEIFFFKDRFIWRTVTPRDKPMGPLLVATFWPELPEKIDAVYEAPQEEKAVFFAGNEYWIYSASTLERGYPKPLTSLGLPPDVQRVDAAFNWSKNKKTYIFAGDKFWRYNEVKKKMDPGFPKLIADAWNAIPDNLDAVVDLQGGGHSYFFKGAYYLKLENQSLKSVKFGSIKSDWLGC

[25] = target: 26S proteasome non-ATPase regulatory subunit 14 (Homo sapiens, UniProt O00487); assay: inhibition of proteasome subunit RPN11 – biochemical, fluorescence polarization, uHTS hits, confirmation (AID 602368); assay type: functional
Chain of 26S proteasome non-ATPase regulatory subunit 14 (O00487 whole entry): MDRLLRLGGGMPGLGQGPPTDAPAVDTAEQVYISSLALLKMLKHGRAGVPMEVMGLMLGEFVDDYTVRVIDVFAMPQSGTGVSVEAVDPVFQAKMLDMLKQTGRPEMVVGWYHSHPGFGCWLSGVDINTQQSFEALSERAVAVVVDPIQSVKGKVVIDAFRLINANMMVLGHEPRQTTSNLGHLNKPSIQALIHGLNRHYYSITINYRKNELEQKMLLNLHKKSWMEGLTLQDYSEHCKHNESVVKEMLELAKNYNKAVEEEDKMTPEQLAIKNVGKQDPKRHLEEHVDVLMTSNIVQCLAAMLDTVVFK

[26] = target: T5, Aminopeptidase N (Plasmodium falciparum FcB1/Columbia, UniProt O96935); assay: malaria alanyl aminopeptidase activity blockers – biochemical, fluorogenic H-Leu-NHMec substrate, 1536-well (AID 1445); set-up: species or system Plasmodium falciparum 3D7, 3D7
T5 sequence (O96935 whole entry): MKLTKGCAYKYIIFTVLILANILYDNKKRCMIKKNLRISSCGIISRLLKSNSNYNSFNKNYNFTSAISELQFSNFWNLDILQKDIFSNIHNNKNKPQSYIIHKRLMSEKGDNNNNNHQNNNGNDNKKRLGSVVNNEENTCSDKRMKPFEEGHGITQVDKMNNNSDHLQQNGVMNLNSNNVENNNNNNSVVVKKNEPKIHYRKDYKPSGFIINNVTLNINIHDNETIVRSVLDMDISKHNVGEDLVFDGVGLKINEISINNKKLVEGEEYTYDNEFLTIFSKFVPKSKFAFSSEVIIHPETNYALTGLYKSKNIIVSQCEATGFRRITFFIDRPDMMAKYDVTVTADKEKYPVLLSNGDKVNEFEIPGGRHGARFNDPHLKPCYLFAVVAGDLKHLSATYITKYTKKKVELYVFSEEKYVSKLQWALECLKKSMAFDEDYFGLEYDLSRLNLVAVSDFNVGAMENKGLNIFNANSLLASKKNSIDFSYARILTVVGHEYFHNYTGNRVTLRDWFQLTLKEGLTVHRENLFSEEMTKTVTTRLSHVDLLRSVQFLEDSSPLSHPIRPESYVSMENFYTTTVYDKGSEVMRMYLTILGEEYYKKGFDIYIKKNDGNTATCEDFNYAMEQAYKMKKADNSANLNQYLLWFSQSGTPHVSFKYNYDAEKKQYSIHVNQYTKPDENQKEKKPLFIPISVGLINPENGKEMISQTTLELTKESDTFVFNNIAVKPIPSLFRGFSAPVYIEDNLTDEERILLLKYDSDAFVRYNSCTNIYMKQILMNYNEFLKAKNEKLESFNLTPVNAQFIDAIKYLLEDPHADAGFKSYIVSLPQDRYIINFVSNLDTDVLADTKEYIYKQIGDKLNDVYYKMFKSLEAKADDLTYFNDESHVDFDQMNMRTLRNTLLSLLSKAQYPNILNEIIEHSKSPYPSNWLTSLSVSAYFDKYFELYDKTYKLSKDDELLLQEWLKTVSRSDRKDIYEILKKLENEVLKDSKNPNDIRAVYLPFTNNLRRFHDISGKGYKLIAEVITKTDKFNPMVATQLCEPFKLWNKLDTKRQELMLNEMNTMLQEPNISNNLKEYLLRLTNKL

[27] = target: Cytochrome P450 2D6 (Homo sapiens, UniProt P10635);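 note: CYP2D6 member of a cytochrome P450 panel assay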
Chain of Cytochrome P450 2D6 (P10635 whole entry): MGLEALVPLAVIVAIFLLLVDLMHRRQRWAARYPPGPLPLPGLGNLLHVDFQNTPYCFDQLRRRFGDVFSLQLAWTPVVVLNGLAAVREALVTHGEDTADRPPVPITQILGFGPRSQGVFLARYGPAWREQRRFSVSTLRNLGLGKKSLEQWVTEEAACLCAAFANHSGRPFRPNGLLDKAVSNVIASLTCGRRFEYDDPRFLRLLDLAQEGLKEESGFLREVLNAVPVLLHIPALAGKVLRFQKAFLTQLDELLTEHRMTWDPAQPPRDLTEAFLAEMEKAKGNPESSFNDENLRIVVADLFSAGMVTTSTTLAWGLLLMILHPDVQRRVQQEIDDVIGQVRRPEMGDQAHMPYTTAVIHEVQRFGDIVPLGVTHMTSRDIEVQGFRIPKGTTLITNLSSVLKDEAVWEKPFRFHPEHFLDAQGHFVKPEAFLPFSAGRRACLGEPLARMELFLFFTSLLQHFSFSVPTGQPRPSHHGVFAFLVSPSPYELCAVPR

[28] = target: T6, Fatty acid synthase (Homo sapiens, UniProt P49327); assay: inhibition of human FAS-TE enzyme activity – biochemical, kinetic fluorescence intensity, dose response (AID 624326); assay type: functional;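 note: rate of fluorescence rise from hydrolysis of a fluorogenic O-methyl fluorescein ester substrate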
T6 sequence (P49327 whole entry): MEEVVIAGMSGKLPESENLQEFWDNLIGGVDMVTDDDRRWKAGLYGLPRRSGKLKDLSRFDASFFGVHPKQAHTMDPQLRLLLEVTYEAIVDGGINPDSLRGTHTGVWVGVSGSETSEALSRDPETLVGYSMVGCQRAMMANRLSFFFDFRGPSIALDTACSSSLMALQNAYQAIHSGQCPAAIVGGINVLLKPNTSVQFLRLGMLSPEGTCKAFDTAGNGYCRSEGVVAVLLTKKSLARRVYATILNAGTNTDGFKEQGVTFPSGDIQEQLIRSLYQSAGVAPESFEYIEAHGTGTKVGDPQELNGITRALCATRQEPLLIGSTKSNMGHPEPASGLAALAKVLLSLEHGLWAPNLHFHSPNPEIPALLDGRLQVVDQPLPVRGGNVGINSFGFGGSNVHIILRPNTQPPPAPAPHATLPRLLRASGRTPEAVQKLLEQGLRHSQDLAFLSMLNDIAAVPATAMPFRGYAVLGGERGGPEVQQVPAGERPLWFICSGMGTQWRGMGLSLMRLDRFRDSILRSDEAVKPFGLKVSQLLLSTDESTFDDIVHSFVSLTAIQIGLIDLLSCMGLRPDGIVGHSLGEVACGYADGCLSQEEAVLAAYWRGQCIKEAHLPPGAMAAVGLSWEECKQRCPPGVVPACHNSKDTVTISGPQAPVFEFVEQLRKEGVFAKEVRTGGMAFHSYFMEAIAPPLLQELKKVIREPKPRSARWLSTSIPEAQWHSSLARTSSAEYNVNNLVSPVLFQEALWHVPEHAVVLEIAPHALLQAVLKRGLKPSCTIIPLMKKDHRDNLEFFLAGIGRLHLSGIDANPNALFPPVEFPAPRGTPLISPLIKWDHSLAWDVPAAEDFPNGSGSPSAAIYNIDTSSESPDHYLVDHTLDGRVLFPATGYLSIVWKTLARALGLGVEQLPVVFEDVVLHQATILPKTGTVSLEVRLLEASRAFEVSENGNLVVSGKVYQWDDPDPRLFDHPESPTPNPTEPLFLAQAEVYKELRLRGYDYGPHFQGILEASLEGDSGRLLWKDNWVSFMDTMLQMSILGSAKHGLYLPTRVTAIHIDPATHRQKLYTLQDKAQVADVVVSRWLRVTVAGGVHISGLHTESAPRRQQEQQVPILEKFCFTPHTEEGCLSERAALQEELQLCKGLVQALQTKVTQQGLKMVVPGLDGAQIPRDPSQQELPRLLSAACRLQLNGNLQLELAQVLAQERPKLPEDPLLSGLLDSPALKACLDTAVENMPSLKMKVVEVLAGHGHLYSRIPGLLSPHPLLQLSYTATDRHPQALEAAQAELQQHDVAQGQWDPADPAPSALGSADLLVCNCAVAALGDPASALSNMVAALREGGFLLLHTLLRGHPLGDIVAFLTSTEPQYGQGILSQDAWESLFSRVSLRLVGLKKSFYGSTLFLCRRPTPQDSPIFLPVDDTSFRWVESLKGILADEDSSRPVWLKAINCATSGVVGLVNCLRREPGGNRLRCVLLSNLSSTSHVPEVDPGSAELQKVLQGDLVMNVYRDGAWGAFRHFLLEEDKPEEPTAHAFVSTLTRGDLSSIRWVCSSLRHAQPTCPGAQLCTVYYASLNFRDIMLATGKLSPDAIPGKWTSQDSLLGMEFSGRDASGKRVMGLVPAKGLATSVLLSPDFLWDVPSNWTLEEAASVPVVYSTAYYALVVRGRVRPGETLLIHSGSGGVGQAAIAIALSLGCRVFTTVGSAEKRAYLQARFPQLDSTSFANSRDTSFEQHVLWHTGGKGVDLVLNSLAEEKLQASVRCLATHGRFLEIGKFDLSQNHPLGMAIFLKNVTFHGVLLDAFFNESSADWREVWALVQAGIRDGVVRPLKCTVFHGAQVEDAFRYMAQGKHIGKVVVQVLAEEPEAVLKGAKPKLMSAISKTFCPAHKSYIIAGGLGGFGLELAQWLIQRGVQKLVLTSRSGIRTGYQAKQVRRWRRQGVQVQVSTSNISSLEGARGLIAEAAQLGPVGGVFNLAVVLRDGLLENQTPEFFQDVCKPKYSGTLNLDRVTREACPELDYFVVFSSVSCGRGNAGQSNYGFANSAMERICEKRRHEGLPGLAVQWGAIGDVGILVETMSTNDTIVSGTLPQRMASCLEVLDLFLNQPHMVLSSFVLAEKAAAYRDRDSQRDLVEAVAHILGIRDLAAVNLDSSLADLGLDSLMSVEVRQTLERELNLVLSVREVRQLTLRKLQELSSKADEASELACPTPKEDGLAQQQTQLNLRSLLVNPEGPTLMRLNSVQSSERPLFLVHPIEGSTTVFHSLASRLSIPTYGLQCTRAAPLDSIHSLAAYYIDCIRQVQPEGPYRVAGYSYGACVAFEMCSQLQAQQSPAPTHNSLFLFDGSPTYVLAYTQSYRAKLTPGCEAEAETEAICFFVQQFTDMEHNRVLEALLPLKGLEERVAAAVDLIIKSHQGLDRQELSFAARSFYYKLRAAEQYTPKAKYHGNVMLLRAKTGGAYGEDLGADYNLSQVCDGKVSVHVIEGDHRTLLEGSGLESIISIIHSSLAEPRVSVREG

[29] = target: Multidrug resistance protein CDR1 (Candida albicans, UniProt P43071); assay: inhibition of Nile Red efflux via Candida CDR1 – S. cerevisiae AD1-8u, singleplex, Cherry Pick1 hits, dose response (AID 588606); assay type: functional
[30] = target: T6, Fatty acid synthase; assay: inhibition of human FAS-TE enzyme activity – biochemical, endpoint fluorescence intensity, uHTS hits, dose response (AID 624327); assay type: functional;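 note: fluorescence from hydrolysis of an O-methyl fluorescein acyl ester substrate by the enzyme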
[31] = target: Melanin-concentrating hormone receptor 1 (Homo sapiens, UniProt Q99705); assay: Late-stage fluorescence-based counterscreen for antagonists of the G-protein coupled receptor 7 (GPR7): cell-based dose response assay to identify antagonists of the melanin-concentrating hormone receptor 1 (MCHR1) Set 6.; assay type: functional
[32] = target: T7, Neuropeptides B/W receptor type 1 (Homo sapiens, UniProt P48145); assay: human NPBW1 receptor blockade, IC50 – cell-based, fluorescence, dose response, set 6, late-stage follow-up (AID 588583); assay type: functional
T7 sequence (P48145 whole entry): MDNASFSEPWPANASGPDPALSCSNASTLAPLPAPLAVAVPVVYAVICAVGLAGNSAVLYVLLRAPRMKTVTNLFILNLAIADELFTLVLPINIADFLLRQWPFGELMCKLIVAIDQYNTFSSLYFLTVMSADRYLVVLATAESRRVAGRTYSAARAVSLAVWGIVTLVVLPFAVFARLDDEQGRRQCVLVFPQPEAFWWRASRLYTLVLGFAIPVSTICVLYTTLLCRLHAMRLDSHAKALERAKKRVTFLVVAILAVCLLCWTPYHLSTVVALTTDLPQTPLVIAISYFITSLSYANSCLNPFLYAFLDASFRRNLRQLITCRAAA

## c1ccc2nc(-c3nc4ccccc4o3)ccc2c1
[1]
  IC50: > 49.8 µM (inactive)
[2]
  IC50: 0.006 µM (active)
[3]
  CC50: > 40 µM (active)
[4]
  EC50: 7.36 µM (active)
[5]
  EC50: > 67.5 µM (inactive)
[6]
  EC50: 8.74 µM (active)
[7]
  AC50: 2.72 µM (active)
[8]
  EC50: > 133 µM (inactive)
[9]
  IC50: 0.954 µM (active)
[10]
  IC50: > 66.2 µM (inactive)
[11]
  EC50: > 67.5 µM (inactive)
[12]
  IC50: 41.7 µM (inactive)
[13]
  AC50: 22.5 µM (active)
[14]
  IC50: 5.46 µM (active)
[15]
  AC50: 3.53 µM (active)
[16]
  EC50: 1.36 µM (active)
[17]
  IC50: 9.69 µM (active)
[18]
  EC50: 10.5 µM (active)
[19]
  AC50: > 52 µM (inactive)
[20]
  EC50: > 150 µM (inconclusive)
[21]
  EC50: 4.38 µM (active)
[22]
  AC50: 11.1 µM (active)

## N#Cc1c(O)nc(SCC(=O)c2cccs2)nc1-c1cccs1
[23]
  IC50: 47.8 µM (active)
[24]
  IC50: > 100 µM (inactive)
[25]
  IC50: 37.2 µM (active)
[26]
  IC50: 24.1 µM (active)
[27]
  AC50: inconclusive

## COc1ccc(NC(=O)Nc2cccc3c2O[C@H](CN(C)C(=O)NC2CCCCC2)[C@@H](C)CN([C@H](C)CO)C3=O)cc1
[28]
  IC50: 3.35 µM (active)
[29]
  EC50: 8.86 µM (active)
[30]
  IC50: 3.56 µM (active)

## N#CC(c1ccccc1)c1c(Cl)cnn(C2c3ccccc3-c3ccccc32)c1=O (configuration not stated)
[31]
  IC50: 2.22 µM (active)
[32]
  IC50: 2.22 µM (active)
